Reference: patent US7456293B2, “Substituted carboxylic acid derivatives for the treatment of diabetes and lipid disorders, their preparation and use” (SK Holding Co., Ltd, priority 2005, dated 2008)
pEC50: −log10 of the molar value. Marks after values point to notes of the source that are not given here.

Columns and labels:
[1] = system: db/db mice; assay: Oral glucose tolerance test (OGTT) in db/db mice; type: in vivo
Procedure: OGTT was performed in db/db mice after dosing of either 3 or 10 mg/kg of the compound of Example 1 for 9 days. The animals were dosed with 10% glucose in water in a volume of 10 mL/kg. Blood samples were taken at 0, 30, 60 and 120 min post dose.

[2] = system: high cholesterol-fed rats; assay: Changes in plasma lipid parameters (high cholesterol-fed rats); type: in vivo; settings: 10 mg/kg
Procedure: Blood was collected and analyzed for non-fasted total cholesterol and free fatty acid levels. The results are calculated as the percent reduction relative to vehicle control.

[3] = system: human ApoA1 transgenic mice; assay: Changes in plasma ApoA1, HDL cholesterol and TG levels (human ApoA1 transgenic mice); type: in vivo; settings: for ApoA1 % increase / HDL Cholesterol % increase / TG % decrease: oral, 8 days
Procedure: Homozygous human ApoA1 transgenic mouse strains (C57BL/6-TgN1Rub) were purchased from Jackson Laboratories (Bar Harbor, Me.). The mice were grouped by six and housed in hanging wire bottom cages with standard laboratory conditions. The mice had free access to normal chow (Purina Rodent Chow) and water. The grouped mice were then dosed orally with vehicle (CMC) or with different concentrations of the compound of Example 1 (3, 10 or 30 mg/kg/d) for 8 days. Compounds were dosed as suspension in 0.5% CMC+0.2% Tween 80 in sterile water. Fresh suspension was prepared for 8 days dosing and kept in a refrigerator. The suspension was administered orally by gavage daily in the morning. The control group received vehicle (dose 10 mL/kg). Blood samples were collected by cardiac puncture, centrifuged and analyzed for ApoA1, HDL cholesterol, and triglyceride.

[4] = molecular target: T1, hPPAR-δ (Homo sapiens, UniProt Q03181); assay: In vitro hPPAR-δ transactivation (GAL4 fusion, SPRAT cells, luciferase); type: cell-based; settings: for pEC50: 6 hours, read-out: PPAR-δ EC50; for PPAR-δ % Max: relative to TTA = 100
T1 construct: expressed in transfected cells
T1 sequence (Q03181 211-439 limits assumed): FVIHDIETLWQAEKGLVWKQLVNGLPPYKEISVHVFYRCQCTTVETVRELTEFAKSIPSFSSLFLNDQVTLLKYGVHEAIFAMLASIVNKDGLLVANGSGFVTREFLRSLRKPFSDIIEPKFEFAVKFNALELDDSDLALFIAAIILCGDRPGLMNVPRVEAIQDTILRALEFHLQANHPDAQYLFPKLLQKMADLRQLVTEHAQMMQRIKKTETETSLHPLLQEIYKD

[5] = system: db/db mice; assay: Efficacy test for blood glucose and plasma lipid lowering (db/db mice); type: in vivo; settings: male db/db mice, oral; for Insulin % max reduction d7: day 7, vs vehicle; for BG % max reduction d14 / Fatty Acid % max reduction d14 / TG % max reduction d14 / Insulin % max reduction d14: day 14, vs vehicle
Text: Mice used in this study were standard model of type II diabetes developed by Jackson Laboratories (Bar Harbor, Me.). Mice (male, 8-wk-old db/db) were housed six per cage in hanging wire bottom cages with standard laboratory conditions. The mice had free access to normal chow (Purina Rodent Chow) and water. At the age of 8-10 weeks, the mice were bled from the tail for glucose matching among the groups (n=6 per group). To test the PPAR-γ effect of the compounds of Examples 1, 2, 3, 4 and 6, mice were then dosed orally with vehicle (CMC) or with two different concentrations (3 or 10 mg/kg/d) of each compound for 7-14 days. Each compound of Examples 1, 2, 3, 4 and 6 was dosed as suspension in 0.5% CMC+0.2% Tween 80 in sterile water. Fresh suspension was prepared for 8 days dosing and kept in a refrigerator. The suspension was administered orally by gavage daily in the morning. The control group received vehicle (dose 10 mL/kg). Blood glucose concentrations (in fed state) were monitored at basal and 3 h post dose on day 14 either by putting a drop of blood from tails on a glucose strip for analysis by a glucometer or using a 10 μL plasma sample in a YSI (Yellow Spring Instruments, OH) analyzer. […] The results are expressed in Table 2 as % maximal reduction that is achieved relative to vehicle treated control group. Animals having more than 300 mg/dL of blood glucose were used for testing. Statistical significance (* P<0.05; ** P<0.01) is given versus the appropriate sample in vehicle treated animals.

[6] = system: 3T3-L1 adipocytes; assay: Insulin-stimulated glucose uptake (2-deoxy-D-glucose) in differentiated 3T3-L1 adipocytes; type: cell-based
Text: Adipocyte differentiation was then induced using standard protocol. […] The maintenance medium was changed every 3 days until the cells were utilized for experimentation. […] In each instance, the medium was changed twice a day. […]

[7] = molecular target: T2, hPPAR-γ (Homo sapiens, UniProt P37231); assay: In vitro hPPAR-γ transactivation (GAL4 fusion, SPRAT cells, luciferase); type: cell-based
T2 construct: expressed in transfected cells
T2 sequence (P37231 238-503 limits assumed): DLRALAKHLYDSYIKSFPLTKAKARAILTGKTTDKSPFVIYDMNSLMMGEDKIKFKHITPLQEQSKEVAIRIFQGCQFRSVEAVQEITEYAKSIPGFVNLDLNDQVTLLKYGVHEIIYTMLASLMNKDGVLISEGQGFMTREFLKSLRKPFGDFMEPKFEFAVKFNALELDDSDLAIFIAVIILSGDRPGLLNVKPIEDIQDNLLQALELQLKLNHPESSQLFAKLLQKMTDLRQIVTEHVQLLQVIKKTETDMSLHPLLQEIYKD

[8] = molecular target: T3, hPPAR-α (Homo sapiens, UniProt Q07869); assay: In vitro hPPAR-α transactivation (GAL4 fusion, SPRAT cells, luciferase); type: cell-based
T3 construct: expressed in transfected cells
T3 sequence (Q07869 239-466 limits assumed): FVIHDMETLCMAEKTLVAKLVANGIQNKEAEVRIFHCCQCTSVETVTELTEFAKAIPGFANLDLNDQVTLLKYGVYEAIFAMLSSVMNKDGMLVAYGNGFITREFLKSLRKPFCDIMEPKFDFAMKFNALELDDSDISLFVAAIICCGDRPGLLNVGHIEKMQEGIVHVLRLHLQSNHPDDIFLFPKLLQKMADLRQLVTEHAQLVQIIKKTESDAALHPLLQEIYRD

[9] = oral, 4 days, vs vehicle control

CCOC(Cc1ccc(OCCn2c(C(F)(F)F)nc3ccccc32)cc1)C(=O)O (racemic) [Example 1, 2-ethoxy-3-(4-{2-[2-(trifluoromethyl)-1H-benzimidazol-1-yl]ethoxy}phenyl)propanoic acid]
AUC for blood glucose, reduction vs vehicle control ([1]; 3 mg/kg for 9 days): 49%
AUC for blood glucose, reduction vs vehicle control ([1]; 10 mg/kg for 9 days): 48%
plasma total cholesterol and free fatty acid levels (in words) [2]: significantly reduced
Free Fatty Acid % reduction [2, 9]: 68** %
Total Cholesterol % reduction [2, 9]: 69** %
ApoA1 % increase ([3]; 3 mg/kg): 52%
HDL Cholesterol % increase ([3]; 3 mg/kg): 47* %
TG % decrease ([3]; 3 mg/kg): 52* %
ApoA1 % increase ([3]; 10 mg/kg): 137%
HDL Cholesterol % increase ([3]; 10 mg/kg): 73** %
TG % decrease ([3]; 10 mg/kg): 56** %
ApoA1 % increase ([3]; 30 mg/kg): 186%
HDL Cholesterol % increase ([3]; 30 mg/kg): 51** %
TG % decrease ([3]; 30 mg/kg): 67** %
HDL-cholesterol (in words) ([3]; through increase in human ApoA1 levels): greatly increased HDL-cholesterol
pEC50 [4]: 4.30
PPAR-δ % Max [4]: 68%
Insulin % max reduction d7 ([5]; 3 mg/kg): 85** (d7) %
BG % max reduction d14 ([5]; 3 mg/kg): 69** %
Fatty Acid % max reduction d14 ([5]; 3 mg/kg): 47** %
TG % max reduction d14 ([5]; 3 mg/kg): 52** %
Insulin % max reduction d7 ([5]; 10 mg/kg): 87** (d7) %
BG % max reduction d14 ([5]; 10 mg/kg): 73** %
Fatty Acid % max reduction d14 ([5]; 10 mg/kg): 72** %
TG % max reduction d14 ([5]; 10 mg/kg): 55** %
glucose transport activity ([6]; 1 μM compound in the presence of 100 nM insulin, 48 h, FIG. 1): significantly increased
glucose transport ([6]; separate treatment: 1 μM compound alone or 100 nM insulin alone, 48 h, 3T3-L1 adipocytes): increase in glucose transport
pEC50 ([7]; 6 hours, read-out: PPAR-γ EC50): 7.40
PPAR-γ % Max ([7]; relative to Rosiglitazone = 100): 62%
pEC50 ([8]; 6 hours, read-out: PPAR-α EC50): 4.76
PPAR-α % Max ([8]; relative to Reference (α) = 100): 44%

CCOC(Cc1ccc(OCCn2c(C(F)(F)C(F)(F)F)nc3ccccc32)cc1)C(=O)O (stereo not drawn) [Example 2, 2-ethoxy-3-(4-{2-[2-(pentafluoroethyl)-1H-benzimidazol-1-yl]ethoxy}phenyl)propanoic acid]
BG % max reduction d14 ([5]; 3 mg/kg): 57** %
Fatty Acid % max reduction d14 ([5]; 3 mg/kg): 45** %
Insulin % max reduction d14 ([5]; 3 mg/kg): 59** (d14) %
TG % max reduction d14 ([5]; 3 mg/kg): 50** %
BG % max reduction d14 ([5]; 10 mg/kg): 75** %
Fatty Acid % max reduction d14 ([5]; 10 mg/kg): 71** %
Insulin % max reduction d14 ([5]; 10 mg/kg): 75** (d14) %
TG % max reduction d14 ([5]; 10 mg/kg): 70** %

CCO[C@@H](Cc1ccc(OCCn2c(C(F)(F)F)nc3ccccc32)cc1)C(=O)O [Example 6, (2S)-3-{4-[2-(2-trifluoromethyl-benzoimidazol-1-yl)-ethoxy]-phenyl}-2-ethoxy-propionic acid]
Insulin % max reduction d7 ([5]; 3 mg/kg): 87** (d7) %
BG % max reduction d14 ([5]; 3 mg/kg): 53** %
Fatty Acid % max reduction d14 ([5]; 3 mg/kg): 54** %
TG % max reduction d14 ([5]; 3 mg/kg): 62** %
Insulin % max reduction d7 ([5]; 10 mg/kg): 86** (d7) %
BG % max reduction d14 ([5]; 10 mg/kg): 73** %
Fatty Acid % max reduction d14 ([5]; 10 mg/kg): 60** %
TG % max reduction d14 ([5]; 10 mg/kg): 66** %
insulin-stimulated glucose uptake, enantio-dependency ([6]; each enantiomer vs racemate, FIG. 2): statistically significant difference (P<0.01) over racemate

CCOC(Cc1ccc(OCCn2c(C(F)(F)F)nc3cc(F)ccc32)cc1)C(=O)O (stereo not drawn) [Example 4, 3-(4-{2-[5-fluoro-2-(trifluoromethyl)-1H-benzimidazol-1-yl]ethoxy}phenyl)-2-ethoxypropanoic acid]
BG % max reduction d14 ([5]; 3 mg/kg): 68** %
Fatty Acid % max reduction d14 ([5]; 3 mg/kg): 25** %
Insulin % max reduction d14 ([5]; 3 mg/kg): 79** (d14) %
TG % max reduction d14 ([5]; 3 mg/kg): 64** %
BG % max reduction d14 ([5]; 10 mg/kg): 73** %
Fatty Acid % max reduction d14 ([5]; 10 mg/kg): 27** %
Insulin % max reduction d14 ([5]; 10 mg/kg): 79** (d14) %
TG % max reduction d14 ([5]; 10 mg/kg): 58** %

CCOC(Cc1ccc(OCCn2c(C(F)(F)F)nc3cc(C(F)(F)F)ccc32)cc1)C(=O)O (stereo not drawn) [Example 3, 3-(4-{2-[2,5-bis(trifluoromethyl)-1H-benzimidazol-1-yl]ethoxy}phenyl)-2-ethoxypropanoic acid]
BG % max reduction d14 ([5]; 3 mg/kg): 77** %
Fatty Acid % max reduction d14 ([5]; 3 mg/kg): 49** %
Insulin % max reduction d14 ([5]; 3 mg/kg): 76** (d14) %
TG % max reduction d14 ([5]; 3 mg/kg): 61** %
BG % max reduction d14 ([5]; 10 mg/kg): 77** %
Fatty Acid % max reduction d14 ([5]; 10 mg/kg): 76** %
Insulin % max reduction d14 ([5]; 10 mg/kg): 79** (d14) %
TG % max reduction d14 ([5]; 10 mg/kg): 77** %

CCCCCCCCCCCCCCSCC(=O)O [TTA (δ), reference compound]
pEC50 [4]: 4.42
PPAR-δ % Max [4]: 100%
